We go through 17 compounds from ChEMBL document CHEMBL1157516, “Discovery of a novel, potent and orally active series of gamma-lactams as selective NK1 antagonists” (Bioorg Med Chem Lett, 2008).

Experiment [1] relates to Meriones unguiculatus. In words: Inhibition of GR-73632-induced foot tapping in Mongolian gerbil assessed as decrease in duration of foot tapping at 1 mg/kg, po after 4 hrs. The experiment is classed as functional.
Experiment [2] deals with Meriones unguiculatus. In words: Inhibition of GR-73632-induced foot tapping in Mongolian gerbil assessed as decrease in duration of foot tapping at 1 mg/kg, po after 2 hrs. The experiment is classed as functional.
A further experiment has as its target Substance-P receptor (Homo sapiens, UniProt P25103). In words: Displacement of [3H]Sar-Met substance P from human recombinant NK1 receptor expressed in CHO cells. It counts as cell-based.
Experiment [3] concerns Meriones unguiculatus. In words: Inhibition of GR-73632-induced foot tapping in Mongolian gerbil assessed as decrease in duration of foot tapping at 1 mg/kg, po after 6 hrs. It counts as functional.
In another experiment the target is T1, Neuromedin-K receptor (Homo sapiens, UniProt P29371).
T1 sequence (P29371 whole entry): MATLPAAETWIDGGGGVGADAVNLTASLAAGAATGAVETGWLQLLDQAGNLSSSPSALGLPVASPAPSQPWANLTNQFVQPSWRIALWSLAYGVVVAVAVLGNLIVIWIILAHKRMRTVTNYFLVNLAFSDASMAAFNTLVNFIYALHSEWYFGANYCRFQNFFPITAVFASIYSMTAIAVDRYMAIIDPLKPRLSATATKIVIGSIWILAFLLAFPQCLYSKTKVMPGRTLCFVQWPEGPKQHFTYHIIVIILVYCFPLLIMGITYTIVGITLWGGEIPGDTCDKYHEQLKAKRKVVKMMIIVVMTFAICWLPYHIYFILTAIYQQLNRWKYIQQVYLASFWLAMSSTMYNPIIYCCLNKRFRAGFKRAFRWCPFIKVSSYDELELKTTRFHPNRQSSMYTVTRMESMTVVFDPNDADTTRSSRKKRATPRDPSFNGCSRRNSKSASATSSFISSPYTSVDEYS
In words: Displacement of [125I]neurokinin B from human recombinant NK3 receptor expressed in CHO cells. It counts as cell-based. On the technique in general: Displacement assays read how much labelled ligand stays bound in the presence of the test substance.

The target of experiment [4] is T2, Substance-K receptor (Homo sapiens) (UniProt P21452).
T2 sequence (whole entry): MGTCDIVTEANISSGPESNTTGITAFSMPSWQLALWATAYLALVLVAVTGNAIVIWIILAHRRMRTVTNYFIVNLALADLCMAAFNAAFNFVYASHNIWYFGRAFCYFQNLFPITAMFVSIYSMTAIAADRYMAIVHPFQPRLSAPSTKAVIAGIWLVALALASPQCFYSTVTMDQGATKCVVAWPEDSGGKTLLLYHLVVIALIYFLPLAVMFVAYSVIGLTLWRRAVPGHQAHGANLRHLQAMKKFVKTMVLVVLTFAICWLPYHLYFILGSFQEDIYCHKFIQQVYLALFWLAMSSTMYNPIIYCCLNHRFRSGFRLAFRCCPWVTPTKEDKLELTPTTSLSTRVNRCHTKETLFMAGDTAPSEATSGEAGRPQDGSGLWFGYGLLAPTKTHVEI
In words: Displacement of [3H]Neurokinin A from human recombinant NK2 receptor expressed in CHO cells at 3 uM. It counts as cell-based.

Experiment [5] deals with T3, Neuromedin-K receptor (Homo sapiens) (UniProt P29371).
T3 sequence (whole entry): T1 sequence (P29371 whole entry)
In words: Displacement of [125I]neurokinin B from human recombinant NK3 receptor expressed in CHO cells at 10 uM. It counts as cell-based.

Structures are written as SMILES.

Substance-P receptor, sequence (P25103 whole entry): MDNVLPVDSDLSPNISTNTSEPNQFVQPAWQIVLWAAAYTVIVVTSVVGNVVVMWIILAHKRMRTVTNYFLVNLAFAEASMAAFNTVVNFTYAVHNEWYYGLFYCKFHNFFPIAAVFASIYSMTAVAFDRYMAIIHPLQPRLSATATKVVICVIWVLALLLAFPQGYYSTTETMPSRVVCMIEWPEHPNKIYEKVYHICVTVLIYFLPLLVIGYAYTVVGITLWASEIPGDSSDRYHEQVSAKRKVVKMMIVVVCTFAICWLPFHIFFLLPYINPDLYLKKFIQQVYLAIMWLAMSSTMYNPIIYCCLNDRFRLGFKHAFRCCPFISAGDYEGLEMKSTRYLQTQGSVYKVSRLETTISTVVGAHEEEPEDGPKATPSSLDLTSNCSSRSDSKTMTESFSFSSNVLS

Consider `C[C@@H](OC[C@@]1(c2ccccc2)C[C@@H](N2CCCC2=O)C(=O)N1)c1cc(C(F)(F)F)cc(C(F)(F)F)c1`, for which the inhibition in vivo (in general, the relative decrease from the control value, in per cent) at 1 mg/kg with Meriones unguiculatus [1] is 46%; with Meriones unguiculatus [2], 49%; in the experiment on Meriones unguiculatus [3], 39%. Besides, the Ki (as a rule, a dissociation constant, usually derived from enzyme kinetics or from competition with a known ligand) at Substance-P receptor was found to be 0.5 nM.
Taken in the same sequence, the figures for `C[C@@H](OC[C@@]1(c2ccccc2)CC(O)C(=O)N1)c1cc(C(F)(F)F)cc(C(F)(F)F)c1` (stereo partly drawn) were 35%, 27%, 1% and 0.5 nM.
Taken in the same sequence, the figures for `C[C@@H]1C[C@@](CO[C@H](C)c2cc(C(F)(F)F)cc(C(F)(F)F)c2)(c2ccccc2)NC1=O` were 2%, 11%, 36% and 2 nM.
Regarding `C[C@@H](OC[C@@]1(c2ccccc2)C[C@@H](N2CCCCC2=O)C(=O)N1)c1cc(C(F)(F)F)cc(C(F)(F)F)c1`, the inhibition in vivo at 1 mg/kg with Meriones unguiculatus [1] was 26%; with Meriones unguiculatus [2] it was 20%; in the experiment with Meriones unguiculatus [3] it was 56%. In addition, the Ki on Substance-P receptor turned out to be 0.2 nM.
With `C[C@H]1C[C@@](CO[C@H](C)c2cc(C(F)(F)F)cc(C(F)(F)F)c2)(c2ccccc2)NC1=O`, the inhibition in vivo at 1 mg/kg was 85% in the experiment with Meriones unguiculatus [1], 77% with Meriones unguiculatus [2] and 44% with Meriones unguiculatus [3]. Also, the inhibitory constant (Ki) at Substance-P receptor was found to be 0.7 nM.
Taken in the same sequence, the figures for `C[C@@H](OC[C@@]1(c2ccccc2)C[C@@H](NS(C)(=O)=O)C(=O)N1)c1cc(C(F)(F)F)cc(C(F)(F)F)c1` were 15%, 0%, 0% and 2.6 nM.
The matching figures for `C[C@@H](OC[C@@]1(c2ccccc2)C[C@H](N2CCCCC2=O)C(=O)N1)c1cc(C(F)(F)F)cc(C(F)(F)F)c1`: 37%, 74%, 63% and 0.2 nM.
Taken in the same sequence, the figures for `CCC(=O)N[C@H]1C[C@@](CO[C@H](C)c2cc(C(F)(F)F)cc(C(F)(F)F)c2)(c2ccccc2)NC1=O` were 97%, 84%, 90% and 0.3 nM.
`C[C@@H](OC[C@@]1(c2ccccc2)C[C@H](N2CCCC2=O)C(=O)N1)c1cc(C(F)(F)F)cc(C(F)(F)F)c1`: the values for the Ki on Neuromedin-K receptor and at Substance-P receptor were 1250 nM and 0.2 nM, respectively. Besides, the inhibition in vivo at 1 mg/kg in the experiment on Meriones unguiculatus [1] worked out at 100%; in the experiment with Meriones unguiculatus [2], 100%; in the experiment with Meriones unguiculatus [3], 98%. Also, the inhibition (usually the percentage by which the read-out fell short of the control) in experiment [4] came to 28%.
Consider `C[C@@H](OC[C@@]1(c2ccccc2)C[C@H](N2CCCC2)C(=O)N1)c1cc(C(F)(F)F)cc(C(F)(F)F)c1`, for which the inhibition in vivo at 1 mg/kg with Meriones unguiculatus [1] came to 60%; in the experiment on Meriones unguiculatus [2], 78%; in the experiment on Meriones unguiculatus [3], 45%. Also, the Ki on Substance-P receptor amounted to 0.4 nM.
With `CCC(=O)N[C@@H]1C[C@@](CO[C@H](C)c2cc(C(F)(F)F)cc(C(F)(F)F)c2)(c2ccccc2)NC1=O`, the inhibition in vivo at 1 mg/kg turned out to be 16% in the experiment on Meriones unguiculatus [1], 83% in the experiment on Meriones unguiculatus [2] and 19% in the experiment on Meriones unguiculatus [3]. Moreover, at Substance-P receptor, the Ki was determined as 0.3 nM.
With `C[C@@H](OC[C@@]1(c2ccccc2)CC(N)C(=O)N1)c1cc(C(F)(F)F)cc(C(F)(F)F)c1` (stereo partly drawn), the inhibition in vivo at 1 mg/kg in the experiment on Meriones unguiculatus [1] was determined as 13%; in the experiment with Meriones unguiculatus [2] it was 5%; in the experiment with Meriones unguiculatus [3] it was 11%. Besides, the inhibition constant Ki on Substance-P receptor was found to be 0.4 nM.
Take `C[C@@H](OC[C@@]1(c2ccccc2)CCC(=O)N1)c1cc(C(F)(F)F)cc(C(F)(F)F)c1`: the Ki at Neuromedin-K receptor is 3810 nM; on Substance-P receptor, 0.6 nM. Also, the inhibition in vivo at 1 mg/kg with Meriones unguiculatus [1] came out at 78%; in the experiment on Meriones unguiculatus [2], 92%; with Meriones unguiculatus [3], 47%. In experiment [4], the inhibition was 0.1%.
For the compound `C[C@@H](OC[C@@]1(c2ccccc2)C[C@H](NS(C)(=O)=O)C(=O)N1)c1cc(C(F)(F)F)cc(C(F)(F)F)c1`, the inhibition in vivo at 1 mg/kg in the experiment on Meriones unguiculatus [1] stood at 58%; with Meriones unguiculatus [2], 10%; with Meriones unguiculatus [3], 43%. For the same compound, the Ki on Substance-P receptor came to 0.6 nM.
`CC(=O)N[C@@H]1C[C@@](CO[C@H](C)c2cc(C(F)(F)F)cc(C(F)(F)F)c2)(c2ccccc2)NC1=O`: the inhibition in vivo at 1 mg/kg in the experiment on Meriones unguiculatus [1] is 97%; in the experiment on Meriones unguiculatus [2], 80%; with Meriones unguiculatus [3], 71%. The Ki at Substance-P receptor was determined as 0.9 nM.
For the compound `C[C@@H](OC[C@@]1(c2ccccc2)CNC(=O)N1)c1cc(C(F)(F)F)cc(C(F)(F)F)c1`, the inhibition in vivo at 1 mg/kg in the experiment with Meriones unguiculatus [1] turned out to be 57%; with Meriones unguiculatus [2], 35%; in the experiment with Meriones unguiculatus [3] it was 48%.
As to `CC(=O)N[C@H]1C[C@@](CO[C@H](C)c2cc(C(F)(F)F)cc(C(F)(F)F)c2)(c2ccccc2)NC1=O`, the figures for the inhibition in experiment [5] and in experiment [4] were 43% and 1.4%, respectively. The values for the inhibition in vivo at 1 mg/kg with Meriones unguiculatus [1], in the experiment on Meriones unguiculatus [2] and with Meriones unguiculatus [3] were 94%, 94% and 91%, respectively. Also, the Ki on Substance-P receptor turned out to be 0.3 nM.
